In US8399493B2, “Pyridinone derivatives and their use as positive allosteric modulators of mGluR2-receptors” (Janssen Pharmaceuticals, Inc., priority 2004, dated 2013):

Legend:
[1] = molecular target: T1, native rat mGluR2 (Rattus norvegicus, UniProt P31421); assay: [35S]GTPγS binding assay using cortical rat brain membranes; assay type: biochemical; details: selective mGluR2 agonist such as LY379268; rat cortical membranes; 3 or 10 μM of positive allosteric modulator
T1 construct: from tissue; host or cells: rat brain cortex membranes (Sprague-Dawley rats, Charles River Laboratories)
T1 sequence (P31421 19-872): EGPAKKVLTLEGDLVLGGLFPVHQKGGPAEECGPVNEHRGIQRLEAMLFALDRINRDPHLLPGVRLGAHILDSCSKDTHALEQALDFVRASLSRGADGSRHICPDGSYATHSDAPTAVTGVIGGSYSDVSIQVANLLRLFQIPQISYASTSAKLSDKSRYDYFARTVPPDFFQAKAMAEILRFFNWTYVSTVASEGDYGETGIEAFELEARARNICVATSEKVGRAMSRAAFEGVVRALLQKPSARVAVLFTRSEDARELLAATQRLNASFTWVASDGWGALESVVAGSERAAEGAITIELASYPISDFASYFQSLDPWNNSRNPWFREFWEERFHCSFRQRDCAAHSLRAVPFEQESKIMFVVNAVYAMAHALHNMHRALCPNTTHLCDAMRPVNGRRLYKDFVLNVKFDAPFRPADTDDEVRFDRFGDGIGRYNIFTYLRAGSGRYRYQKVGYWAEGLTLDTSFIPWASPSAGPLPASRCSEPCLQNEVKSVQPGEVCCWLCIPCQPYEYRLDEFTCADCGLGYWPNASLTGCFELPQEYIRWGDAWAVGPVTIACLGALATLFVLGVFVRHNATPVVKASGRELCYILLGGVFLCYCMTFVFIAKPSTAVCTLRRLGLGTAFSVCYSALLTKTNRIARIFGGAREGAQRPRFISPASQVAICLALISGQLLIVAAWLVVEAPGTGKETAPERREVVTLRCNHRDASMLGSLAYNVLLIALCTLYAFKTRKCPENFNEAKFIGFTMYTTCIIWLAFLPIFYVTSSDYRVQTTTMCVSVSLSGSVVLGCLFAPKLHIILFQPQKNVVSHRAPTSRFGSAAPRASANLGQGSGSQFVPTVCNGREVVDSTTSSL
Source text: The [^35S]GTPγS binding is a functional membrane-based assay used to study G-protein coupled receptor (GPCR) function. This method is using a binding assay to assess the initial step in receptor-mediated G protein activation in membranes prepared from cells expressing recombinant GPCR or using membranes from discrete area of the rat brain. In brief, the assay is measuring the activation of G proteins by catalyzing the exchange of guanosine 5′-diphosphate (GDP) by guanosine 5′-triphosphate (GTP) at the α subunit. The GTP-bounded G proteins dissociate into two subunits, Gα-GTP and Gβγ, which in turn regulate intracellular enzymes and ion channels. GTP is rapidly hydrolysed by the Gα-subunit (GTPases) and the G protein is deactivated and ready for new GTP exchange cycle (Harper (1998) Curr Protoc Pharmacol 2.6.1-10, John Wiley & Sons, Inc.). [^35S]GTPγS, a non-hydrolyzed analogue of GTP, is used for this purpose.
This method is widely used to study receptor activation of G protein in membranes prepared from rat brain tissue, including mGluR2 receptors (Schaffhauser et al 2003, Pinkerton et al, 2004). mGluR2 receptors are expressed in the rat brain cortex (Mutel et al (1998) J. Neurochem. 71:2558-64; Schaffhauser et al (1998) Mol. Pharmacol. 53:228-33) and are coupled to Gαi-protein, a preferential coupling for this method.
[^35S]GTPγS binding assay using cortical rat brain membranes preparation was used and adapted from Schaffhauser et al ((2003) Mol. Pharmacol. 4:798-810) for the detection of the positive allosteric modulator properties of the compounds of this invention on native rat mGluR2. In order to eliminate the possible interference with group III Gαi-protein coupled mGluRs (mGluR4, mGluR7, mGluR8; mGluR6 is not expressed in the cortex (Laurie et al (1997) Neuropharmacol. 36:145-52)), the potentiation of the response to a selective mGluR2 agonist, such as DCG-IV (Cartmell et al. (1998) Br. J. Pharmacol. 123(3):497-504) or LY379268 (Monn et al. (1999) J. Med. Chem 42:1027-40), by compounds described in the present invention was performed.
Cortices were dissected out from brains of 200-300 g Sprague-Dawley rats (Charles River Laboratories, L'Arbresle, France). Tissues were homogenized in 6 volumes (vol/wt) of 10% sucrose at 4° C. using a glass-teflon homogenizer. The homogenate was centrifuged at 1250 g for 10 min, and the supernatant was centrifuged at 40,000 g for 20 min (4° C.). The pellet was resuspended in 25 ml water using a Polytron disrupter (Kinematica AG, Luzern, Switzerland) and centrifuged for 10 min at 3000 g. (4° C.). The supernatant was centrifuged at 40,000 g for 20 min (4° C.). The supernatant was discarded and the pellet washed twice by resuspension in 10 volumes 5 mM HEPES-KOH, pH 7.4. The homogenate was frozen and thawed twice and centrifuged at 40,000 g for 20 min. The final pellet was resuspended in 5 mM HEPES-KOH, pH 7.4 and stored at −80° C. before its use. Protein concentration was determined by the Bradford method (Bio-Rad protein assay, Reinach, Switzerland) with bovine serum albumin as standard.
Measurement of mGluR2 positive allosteric modulators properties in rat cortical membranes was performed as follows: rat cortical membrane (1.5 μg) were incubated in 96-well microplates for 15 min at 30° C. in assay buffer (50 mM HEPES pH 7.4, 100 mM NaCl, 5 mM MgCl2, 10 μM GDP, 10 μg/ml saponin, EGTA 0.2 mM) with increasing concentrations of positive allosteric modulator (from 1 nM to 10 μM) and a minimal concentration of DCG-IV or LY379268, a selective mGluR2 agonist, that has been determined in previous experiments and that corresponds to the EC20, a concentration that gives 20% of the maximal response of the agonist, and is in accordance to published data (Pin et al. (1999) Eur. J. Pharmacol. 375:277-294). […]

| melting point | Compound | Activity: left-ward shift of agonist mGluR2 concentration-response curve [1] |
| --- | --- | --- |
| 119 to 121 °C | O=c1ccc(COc2ccccc2)cn1Cc1ccc(C(F)(F)F)nc1 [16-07] | ++ (left-ward shift of agonist mGluR2 concentration-response curve [2- to 3.5-fold]) |
| 139 °C | O=c1ccc2ccccc2n1Cc1ccc(Cl)cc1 [15-04, 1-(4-Chlorobenzyl)quinolin-2(1H)-one] | + (left-ward shift of agonist mGluR2 concentration-response curve [<2]) |
| 135 °C | Cc1ccc(-c2ccc(=O)n(Cc3ccc(Cl)cc3)c2)nc1 [2-61] | ++ (left-ward shift of agonist mGluR2 concentration-response curve [2- to 3.5-fold]) |
| 133 °C | COc1ccc(-c2cn(Cc3ccc(Cl)cc3)c(=O)cn2)cc1 [12-06, 1-(4-Chlorobenzyl)-5-(4-methoxyphenyl)pyrazin-2(1H)-one] | + (left-ward shift of agonist mGluR2 concentration-response curve [<2]) |
| 185 °C | O=C(O)CCc1ccc(-c2ccc(=O)n(Cc3ccc(Cl)cc3)c2)cc1 [2-32] | ++ (left-ward shift of agonist mGluR2 concentration-response curve [2- to 3.5-fold]) |
| 179 °C | Cl.O=c1ccc(C#Cc2cccnc2)cn1Cc1cccc(F)c1 [7-02, 1-(3-Fluorobenzyl)-5-(2-(pyridin-3-yl)ethynyl)pyridin-2(1H)-one hydrochloride] | + (left-ward shift of agonist mGluR2 concentration-response curve [<2]) |
| 142 °C | COc1ccc(-c2ccc(=O)n(Cc3ccc(Cl)cc3)c2)cc1 [4-20] | +++ (left-ward shift of agonist mGluR2 concentration-response curve [>3.5]) |
| 123 °C | CC(C)CCn1ccc(-c2cccs2)c(C#N)c1=O [10-28, 1,2-Dihydro-1-isopentyl-2-oxo-4-(thiophen-2-yl)pyridine-3-carbonitrile] | +++ (left-ward shift of agonist mGluR2 concentration-response curve [>3.5]) |
|  | COc1ccc(-c2cn(Cc3ccc(Cl)cc3F)c(=O)cc2OC)cc1 [9-18, 1-(4-Chloro-2-fluorobenzyl)-4-methoxy-5-(4-methoxyphenyl)pyridin-2(1H)-one] | + (left-ward shift of agonist mGluR2 concentration-response curve [<2]) |
| 168 °C | COc1ccc(-c2ccc(=O)n(Cc3ccc(C(F)(F)F)nc3)c2)cc1.Cl [4-47, 5-(4-Methoxyphenyl)-1-((6-(trifluoromethyl)pyridin-3-yl)methyl)-pyridin-2(1H)-one hydrochloride] | +++ (left-ward shift of agonist mGluR2 concentration-response curve [>3.5]) |
| 165 °C | CS(=O)(=O)NCc1ccc(-c2ccc(=O)n(Cc3ccc(Cl)cc3F)c2)cc1 [6-73] | ++ (left-ward shift of agonist mGluR2 concentration-response curve [2- to 3.5-fold]) |
| 170 to 171 °C | CCCn1ccc2c(NCCc3ccc(O)cc3)cccc2c1=O [13-05, 5-(4-Hydroxyphenethylamino)-2-propylisoquinolin-1(2H)-one] | +++ (left-ward shift of agonist mGluR2 concentration-response curve [>3.5]) |
|  | COCCc1cc(=O)n(Cc2ccc(Cl)cc2)cc1-c1ccc(OC)cc1 [9-17, 1-(4-Chlorobenzyl)-4-(2-methoxyethyl)-5-(4-methoxyphenyl)pyridin-2(1H)-one] | + (left-ward shift of agonist mGluR2 concentration-response curve [<2]) |
| 169 °C | CS(=O)(=O)Nc1cccc(-c2ccc(=O)n(Cc3ccc(Cl)cc3)c2)c1 [2-55] | ++ (left-ward shift of agonist mGluR2 concentration-response curve [2- to 3.5-fold]) |
| 120 °C | COc1ccc(-c2ccc(=O)n(Cc3ccc(F)c(F)c3)c2)cn1 [6-16] | ++ (left-ward shift of agonist mGluR2 concentration-response curve [2- to 3.5-fold]) |
|  | COc1cccc(Cc2ccc(=O)n(Cc3ccc(Cl)cc3)c2)c1 [3-02, 5-(3-Methoxybenzyl)-1-(4-chlorobenzyl)pyridin-2(1H)-one] | ++ (left-ward shift of agonist mGluR2 concentration-response curve [2- to 3.5-fold]) |
| 114 °C | COc1ccc(-c2ccn(Cc3cccc(F)c3)c(=O)c2)cc1 [11-03, 1-(3-Fluorobenzyl)-4-(4-methoxyphenyl)pyridin-2(1H)-one] | + (left-ward shift of agonist mGluR2 concentration-response curve [<2]) |
| 107 °C | O=c1c2ccccc2ccn1Cc1ccc(F)cc1 [13-01, 2-(4-Fluorobenzyl)isoquinolin-1(2H)-one] | ++ (left-ward shift of agonist mGluR2 concentration-response curve [2- to 3.5-fold]) |
| 197 °C | O=c1ccc(-c2ccc(OCc3nn[nH]n3)cc2)cn1Cc1ccc(Cl)cc1F [6-65, 5-(4-((2H-Tetrazol-5-yl)methoxy)phenyl)-1-(4-chloro-2-fluorobenzyl)pyridin-2(1H)-one] | +++ (left-ward shift of agonist mGluR2 concentration-response curve [>3.5]) |
